Assay results published in patent publication US20260297679A1, “ASSAYS FOR MONITORING INHIBITION OF RNA HELICASE DHX9” (ACCENT THERAPEUTICS, INC., priority 2023, published 2026).

How the values were obtained:
LS411N tumors [1] = test: Intra-tumoral human circBRIP1 analysis, LS411N xenograft; format: in vivo, human xenograft in female BALB/c nude mice; details: 30, 100, 200 and 300 mg/kg BID oral, 21 days, 12 hours post last dose; FIG. 4A
Method: This study was conducted to evaluate pharmacodynamics (PD) and pharmacokinetics (PK) of intra-tumoral circular BRIP1 with efficacy of a DHX9 inhibitor (Compound 1, as shown in Table 1).
In vivo Efficacy Study: Experiments were performed in female BALB/c nude mice (GenPharmatech Co.). Animals were allowed to acclimate for 7 days before the study. The general health of the animals were evaluated by a veterinarian, and complete health checks were performed prior to the study. […] Animals were housed in polycarbonate cage which is the size of 300×180×150 mm^3 and in an environmentally monitored, well-ventilated room maintained at a temperature of (23±3° C.) and a relative humidity of 40% 70%. […]
(§1) The LS411N (ATCC; CRL-2159) tumor cell lines were maintained in vitro as monolayer in RPMI 1640 medium supplemented with 10% heat inactivated FBS, at 37° C. in an atmosphere of 5% CO2 in air. The tumor cells were sub-cultured, not exceeding 4-5 passages, and cells growing in an exponential growth phase were harvested and counted for tumor inoculation. […]
Data analysis was performed by using the QuantStudio Thermocycler software to determine threshold Ct values. ΔCt for circBRIP1 or linBRIP1 is calculated by normalizing the target gene Ct to the GAPDH housekeeping gene Ct for each sample. The inhibition activity is calculated by the following formula, whereas: […]

LS411N tumors [2] = test: In vivo efficacy study, tumor volume, LS411N xenograft; parameters: species or system human xenograft in female BALB/c nude mice; details: BID oral, 21 days; FIG. 4B
Method: In vivo Efficacy Study: Experiments were performed in female BALB/c nude mice (GenPharmatech Co.). Animals were allowed to acclimate for 7 days before the study. The general health of the animals were evaluated by a veterinarian, and complete health checks were performed prior to the study. General procedures for animal care and housing were in accordance with the standard, Commission on Life Sciences, National Research Council, Standard Operating Procedures (SOPs) of Pharmaron, Inc. The mice were kept in laminar flow rooms at constant temperature and humidity with 3-5 mice in each cage. Animals were housed in polycarbonate cage which is the size of 300×180×150 mm^3 and in an environmentally monitored, well-ventilated room maintained at a temperature of (23±3° C.) and a relative humidity of 40% 70%. Fluorescent lighting provided illumination approximately 12 hours per day. […]
as §1
The measurement of tumor size was conducted with a caliper and recorded twice per week. […]

frozen PBMCs = test: circBRIP1 level in frozen human PBMCs; format: cell-based; details: 10 μM, 24 hours, frozen PBMCs from three donors, vs vehicle; FIG. 8A
Method: As proof of concept, circBRIP1 levels were examined in peripheral blood mononuclear cells (PMBCs) using frozen PBMCs from donors after treatment with a DHX9 inhibitor.
Frozen PBMCs were thawed in a 37° C. water bath, washed, and reconstituted in media. The same number of cells were added to each well of 12-well plates and let rest for 2 hours before being subjected to testing conditions. Compound 1 was dissolved in DMSO at 10 mM as a stock solution, and diluted to a desired concentration. Frozen PBMCs from three donors or LS411N cells (positive control) were treated with 10 μM of Compound 1 or control vehicle for 24 hours. The circBRIP1 level was determined using methods essentially as described above.

human PBMCs = test: proliferation of human PBMCs (Cell-Titer Glo 2.0); format: cell-based; details: Compound 1 0.01 μM to 10 μM, 10 days; FIG. 8B
Method: Next, the proliferation of PMBCs was examined following treatment with DHX9 inhibitor using the following assay.
Human PBMCs were thawed from a frozen cryotube in a 37° C. water bath and transferred to a flask with medium X-Vivo 15 supplemented with 5% Fetal Bovine Serum (FBS), 1% PenStrep, and 1% Glutamax. Flasks were incubated at 37 C for 30 minutes. PBMCs were harvested from flask and counted. PBMCs were diluted in medium and added to 96 well plates at 100,000 PBMCs per well. A stimulus mixture containing IL-15 at 1 ng/well, IL-21 at 5 ng/well, and CD40L at 5 ng/well was added to each well. Test compounds were prepared in DMSO stock solution and serially diluted. Compound (0.1% final DMSO concentration) was added to each well. DMSO was used as a negative control (high control, HC) and staurosporine was used a positive control (low control, LC). Plates were incubated at 37 C for 0, 2, 4, 6, 8, 10 days. Every other day, medium was replenished with stimulus and diluted compounds.
At each CTG time point, plate was removed from incubator and Cell-Titer Glo 2.0 reagent was added to each well according to manufacturer's (Promega) protocol and detected on an Envision. The inhibition activity was calculated following the formula below:
% Inhibition=100×(ReadoutHC−ReadoutSample)/(ReadoutHC−ReadoutLC)
PBMCs were exposed to Compound 1 at concentrations ranging from 0.01 μM to 10 μM for 10 days. […]

## Cc1cccnc1-c1csc(C(=O)Nc2cc(Cl)cc(NS(C)(=O)=O)c2)c1 [Compound 1, N-(3-chloro-5-methanesulfonamidophenyl)-4-(3-methylpyridin-2-yl)thiophene-2-carboxamide]
LS411N tumors [1]
  intra-tumoral circBRIP1 induction: Dose-dependent intra-tumoral circBRIP1 induction was observed
LS411N tumors [2]
  correlation of tumor volume to circBRIP1 induction: correlate to circBRIP1 induction
Frozen PBMCs
  circBRIP1 level in PBMCs: significantly elevated
Human PBMCs
  proliferation of PBMCs: did not inhibit proliferation of PBMCs
